Source: the NIST ThermoML archive (doi:10.1007/s10765-005-8591-6)
± gives the expanded uncertainty stated by the source.

Key:
[1] = Fluid (supercritical or subcritical phases), Constant-volume piezometry
[2] = xn = mol fraction of the nth substance listed; conditions: Fluid (supercritical or subcritical phases), Constant-volume piezometry, x1 = 1

FCF [difluoromethane]
[1]
Conditions | mass density [kg/m3]
313.16 K, 3353.7 kPa | 900.17 ± 0.41
316.15 K, 4967.1 kPa | 899.97 ± 0.41
319.15 K, 6571.4 kPa | 899.77 ± 0.41
322.15 K, 8162.4 kPa | 899.57 ± 0.42
328.16 K, 11400 kPa | 899.19 ± 0.43
334.15 K, 14753 kPa | 898.82 ± 0.44
337.15 K, 16580 kPa | 898.63 ± 0.44

FCF [difluoromethane] + FC(F)C(F)(F)F
[2]
Conditions | mass density [kg/m3]
313.16 K, 3353.7 kPa | 900.17 ± 0.41
316.15 K, 4967.1 kPa | 899.97 ± 0.41
319.15 K, 6571.4 kPa | 899.77 ± 0.41
322.15 K, 8162.4 kPa | 899.57 ± 0.42
328.16 K, 11400 kPa | 899.19 ± 0.43
334.15 K, 14753 kPa | 898.82 ± 0.44
337.15 K, 16580 kPa | 898.63 ± 0.44

FC(F)C(F)(F)F [pentafluoroethane]
[1]
Conditions | mass density [kg/m3]
258.16 K, 4595.6 kPa | 1403.78 ± 0.63
261.15 K, 6579.8 kPa | 1403.47 ± 0.63
262.14 K, 7284.6 kPa | 1403.36 ± 0.63
267.16 K, 10809 kPa | 1402.84 ± 0.64
270.19 K, 13003 kPa | 1402.53 ± 0.64
273.15 K, 15076 kPa | 1402.23 ± 0.65
275.15 K, 16572 kPa | 1402.04 ± 0.65
